Measurements taken from the NIST ThermoML archive (doi:10.1016/j.jct.2013.08.034).
Numbers after ± are expanded uncertainties.

Experiments:
[1] = Liquid; for electrical conductivity / viscosity: 101 kPa; for electrical conductivity: Conductivity Meter Jenco 3107; for viscosity: Cone and plate viscometry; for mass density: 101.33 kPa, Vibrating tube method
[2] = xn = mol fraction of the nth substance listed; settings: 101 kPa, Liquid, x1 = 1; for electrical conductivity: Conductivity Meter Jenco 3107; for viscosity: Cone and plate viscometry

## CCCC[n+]1ccn(C)c1.O=S(=O)([N-]S(=O)(=O)C(F)(F)F)C(F)(F)F
[1]; 293.15 K
  electrical conductivity: 0.337 ± 0.01 S/m
  viscosity: 62.08 ± 6.2 mPa·s
  mass density: 1439.27 ± 0.62 kg/m3
[1]; 298.15 K
  electrical conductivity: 0.4 ± 0.012 S/m
  viscosity: 50.05 ± 5 mPa·s
  mass density: 1434.3 ± 0.61 kg/m3
[1]; 303.15 K
  electrical conductivity: 0.472 ± 0.014 S/m
  viscosity: 41.24 ± 4.2 mPa·s
  mass density: 1429.4 ± 0.61 kg/m3
[1]; 308.15 K
  electrical conductivity: 0.552 ± 0.017 S/m
  viscosity: 33.65 ± 3.4 mPa·s
  mass density: 1424.57 ± 0.6 kg/m3
[1]; 313.15 K
  electrical conductivity: 0.64 ± 0.019 S/m
  viscosity: 28.28 ± 2.8 mPa·s
  mass density: 1419.61 ± 0.6 kg/m3
[1]; 318.15 K
  electrical conductivity: 0.733 ± 0.022 S/m
  viscosity: 23.91 ± 2.4 mPa·s
  mass density: 1414.67 ± 0.6 kg/m3
[1]; 323.15 K
  electrical conductivity: 0.835 ± 0.025 S/m
  viscosity: 20.64 ± 2.1 mPa·s
  mass density: 1409.65 ± 0.59 kg/m3
[1]; 328.15 K
  electrical conductivity: 0.944 ± 0.028 S/m
  viscosity: 17.9 ± 1.8 mPa·s
[1]; 333.15 K
  viscosity: 15.51 ± 1.6 mPa·s

## CCCC[n+]1ccn(C)c1.O=S(=O)([N-]S(=O)(=O)C(F)(F)F)C(F)(F)F + CC1COC(=O)O1
[2]; 293.15 K
  electrical conductivity: 0.337 ± 0.01 S/m
  viscosity: 62.08 ± 6.2 mPa·s
[2]; 298.15 K
  electrical conductivity: 0.4 ± 0.012 S/m
  viscosity: 50.05 ± 5 mPa·s
[2]; 303.15 K
  electrical conductivity: 0.472 ± 0.014 S/m
  viscosity: 41.24 ± 4.2 mPa·s
[2]; 308.15 K
  electrical conductivity: 0.552 ± 0.017 S/m
  viscosity: 33.65 ± 3.4 mPa·s
[2]; 313.15 K
  electrical conductivity: 0.64 ± 0.019 S/m
  viscosity: 28.28 ± 2.8 mPa·s
[2]; 318.15 K
  electrical conductivity: 0.733 ± 0.022 S/m
  viscosity: 23.91 ± 2.4 mPa·s
[2]; 323.15 K
  electrical conductivity: 0.835 ± 0.025 S/m
  viscosity: 20.64 ± 2.1 mPa·s
[2]; 328.15 K
  electrical conductivity: 0.944 ± 0.028 S/m
  viscosity: 17.9 ± 1.8 mPa·s
[2]; 333.15 K
  viscosity: 15.51 ± 1.6 mPa·s

## CC1COC(=O)O1 (configuration not stated) [4-methyl-1,3-dioxolan-2-one]
[1]; 293.15 K
  viscosity: 2.86 ± 0.29 mPa·s
  mass density: 1204.81 ± 0.41 kg/m3
[1]; 298.15 K
  viscosity: 2.65 ± 0.27 mPa·s
  mass density: 1199.02 ± 0.4 kg/m3
[1]; 303.15 K
  viscosity: 2.44 ± 0.24 mPa·s
  mass density: 1194 ± 0.4 kg/m3
[1]; 308.15 K
  viscosity: 2.23 ± 0.22 mPa·s
  mass density: 1188.57 ± 0.39 kg/m3
[1]; 313.15 K
  viscosity: 2.05 ± 0.21 mPa·s
  mass density: 1183.11 ± 0.39 kg/m3
[1]; 318.15 K
  viscosity: 1.9 ± 0.19 mPa·s
  mass density: 1177.55 ± 0.38 kg/m3
[1]; 323.15 K
  viscosity: 1.78 ± 0.18 mPa·s
  mass density: 1171.96 ± 0.38 kg/m3
[1]; 328.15 K
  viscosity: 1.63 ± 0.16 mPa·s
[1]; 333.15 K
  viscosity: 1.54 ± 0.15 mPa·s
